In brackets after ≈: the same amount, converted by molar mass.
Key:
[1] = biological target: T1, DNA topoisomerase 2-alpha (Homo sapiens, UniProt P11388); assay: Inhibition of human DNA topoisomerase 2 alpha assessed as relaxation of supercoiled plasmid pNO1 DNA incubated for 30 mins by fluorescence based analysis
[2] = Thermodynamic aqueous solubility of compound in PBS buffer at pH 7.4 at 25 degreeC measured after 24 hrs by UPLC analysis; format: physicochemical; details: read-out: Therm_solubility
[3] = Metabolic stability in rat liver S9 fraction assessed as half life at 100 uM measured upto 120 mins in presence of NADPH by HPLC analysis; format: ADME, subcellular
[4] = tested on: K562; assay: Cytotoxicity against human K562 cells assessed as reduction in cell viability at 10 uM by MTT assay; format: functional, cell-based
[5] = biological target: T2, DNA topoisomerase 1 (Homo sapiens, UniProt P11387); assay: Inhibition of human DNA Topoisomerase 1 assessed as relaxation of supercoiled plasmid pBR322 DNA incubated for 30 mins by ethidium bromide staining based agarose gel electrophoresis
T2 sequence (P11387 whole entry): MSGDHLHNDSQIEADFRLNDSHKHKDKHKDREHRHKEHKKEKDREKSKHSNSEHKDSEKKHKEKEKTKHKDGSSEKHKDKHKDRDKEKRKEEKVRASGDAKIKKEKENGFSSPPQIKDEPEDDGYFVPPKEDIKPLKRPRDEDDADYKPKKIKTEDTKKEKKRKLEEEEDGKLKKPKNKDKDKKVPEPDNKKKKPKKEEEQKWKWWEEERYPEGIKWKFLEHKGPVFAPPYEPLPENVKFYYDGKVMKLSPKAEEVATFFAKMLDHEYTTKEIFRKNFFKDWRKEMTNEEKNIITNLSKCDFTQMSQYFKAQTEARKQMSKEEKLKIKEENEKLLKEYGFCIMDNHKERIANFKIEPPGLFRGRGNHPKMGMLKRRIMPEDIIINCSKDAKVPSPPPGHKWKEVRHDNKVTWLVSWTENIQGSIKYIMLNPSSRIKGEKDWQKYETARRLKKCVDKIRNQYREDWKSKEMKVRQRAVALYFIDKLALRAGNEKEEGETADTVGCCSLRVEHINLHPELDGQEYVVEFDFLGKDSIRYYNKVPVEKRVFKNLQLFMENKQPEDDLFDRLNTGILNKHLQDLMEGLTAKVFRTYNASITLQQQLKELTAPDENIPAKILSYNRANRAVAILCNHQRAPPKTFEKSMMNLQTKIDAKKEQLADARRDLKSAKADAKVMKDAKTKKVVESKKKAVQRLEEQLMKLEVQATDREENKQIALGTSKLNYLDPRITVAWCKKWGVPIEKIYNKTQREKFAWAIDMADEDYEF

[6] = tested on: MCF7; assay: cells; details: Homo sapiens, MCF7, 72 h
Description: Cytotoxicity against human MCF7 cells assessed as inhibition of cell growth incubated for 72 hrs by MTS assay

[7] = tested on: HepG2; assay: cells; details: Homo sapiens, HepG2, 72 h
Description: Cytotoxicity against human HepG2 cells assessed as inhibition of cell growth incubated for 72 hrs by MTS assay

[8] = biological target: T1, DNA topoisomerase 2-alpha; assay: Inhibition of human DNA topoisomerase 2 alpha assessed as ATP hydrolysis measured for 30 mins by absorbance based assay
[9] = Cytotoxicity against HEK293 cells assessed as inhibition of cell growth incubated for 72 hrs by MTS assay; format: toxicity, cell-based; details: human
[10] = Selectivity index, ratio of IC50 for HEK293 cells to IC50 for human MCF7 cells; format: toxicity; details: HEK293 cells versus MCF7 cells, read-out: Ratio IC50
[11] = Selectivity index, ratio of IC50 for HEK293 cells to IC50 for human HepG2 cells; format: toxicity; details: HEK293 cells versus HepG2 cells, read-out: Ratio IC50

T1 sequence (P11388 whole entry): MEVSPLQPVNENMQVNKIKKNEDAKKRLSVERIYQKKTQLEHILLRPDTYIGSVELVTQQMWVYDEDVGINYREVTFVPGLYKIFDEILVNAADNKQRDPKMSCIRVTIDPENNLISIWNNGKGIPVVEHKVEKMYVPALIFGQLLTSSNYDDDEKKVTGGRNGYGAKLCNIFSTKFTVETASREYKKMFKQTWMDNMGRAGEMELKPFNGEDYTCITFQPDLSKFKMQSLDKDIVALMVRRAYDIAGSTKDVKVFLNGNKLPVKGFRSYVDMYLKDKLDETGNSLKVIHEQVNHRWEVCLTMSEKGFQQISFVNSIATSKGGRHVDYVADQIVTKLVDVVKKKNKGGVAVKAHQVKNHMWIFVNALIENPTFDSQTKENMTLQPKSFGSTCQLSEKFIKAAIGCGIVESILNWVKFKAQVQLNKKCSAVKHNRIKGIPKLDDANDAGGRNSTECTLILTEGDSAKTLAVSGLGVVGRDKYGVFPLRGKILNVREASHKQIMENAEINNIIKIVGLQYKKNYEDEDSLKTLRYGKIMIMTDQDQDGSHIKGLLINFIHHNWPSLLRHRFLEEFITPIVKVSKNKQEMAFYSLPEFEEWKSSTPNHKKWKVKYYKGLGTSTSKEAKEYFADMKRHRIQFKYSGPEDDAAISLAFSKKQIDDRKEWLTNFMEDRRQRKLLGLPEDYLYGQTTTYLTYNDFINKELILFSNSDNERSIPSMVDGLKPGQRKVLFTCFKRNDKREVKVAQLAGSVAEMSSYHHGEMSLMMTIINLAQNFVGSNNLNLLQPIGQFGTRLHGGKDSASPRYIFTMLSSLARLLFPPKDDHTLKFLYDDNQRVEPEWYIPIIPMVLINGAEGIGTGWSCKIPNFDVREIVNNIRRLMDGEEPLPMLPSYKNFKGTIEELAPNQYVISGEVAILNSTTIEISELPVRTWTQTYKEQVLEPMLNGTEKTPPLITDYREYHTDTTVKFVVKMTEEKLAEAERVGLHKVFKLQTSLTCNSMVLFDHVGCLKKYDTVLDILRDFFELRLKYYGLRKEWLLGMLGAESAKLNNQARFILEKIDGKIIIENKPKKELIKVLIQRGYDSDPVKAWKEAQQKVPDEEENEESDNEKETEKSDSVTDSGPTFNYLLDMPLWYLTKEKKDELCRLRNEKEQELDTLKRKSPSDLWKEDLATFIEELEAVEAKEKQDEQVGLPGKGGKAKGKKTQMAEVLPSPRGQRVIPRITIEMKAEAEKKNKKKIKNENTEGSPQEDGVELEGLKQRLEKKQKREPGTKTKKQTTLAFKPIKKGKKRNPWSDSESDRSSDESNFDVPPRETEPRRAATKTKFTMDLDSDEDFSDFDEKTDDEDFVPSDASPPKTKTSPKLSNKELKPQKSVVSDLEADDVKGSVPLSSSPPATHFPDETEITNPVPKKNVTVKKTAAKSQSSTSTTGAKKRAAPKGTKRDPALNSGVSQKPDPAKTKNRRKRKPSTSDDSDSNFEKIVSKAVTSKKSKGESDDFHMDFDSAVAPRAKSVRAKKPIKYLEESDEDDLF

Compound `Cc1[nH]c(C(=O)Nc2cc(C(N)=O)ccc2OC2CCNC2)c(Cl)c1Cl` (centres undefined) has an IC50 [1] of 32 µM.
With `Cc1[nH]c(C(=O)Nc2ccccc2OCc2cccc(C(=O)NCCN)c2)cc1F` the IC50 [1] was over 100 µM.
With `Cc1[nH]c(C(=O)Nc2ccccc2OC2CCN(C(=O)OC(C)(C)C)C2)c(Cl)c1Cl` (centres undefined) the IC50 [1] was over 100 µM.
In the case of `CCc1cnc(C(=O)Nc2ccc(C(N)=O)cc2OC(C)C)[nH]1`, the IC50 [1] is reported as over 100 µM.
Work on `Cc1[nH]c(C(=O)Nc2ccccc2OCc2cccc(C(=O)NCCN)c2)cc1Cl` yielded an IC50 [1] of 35 µM.
For `Cc1[nH]c(C(=O)Nc2cc(C(N)=O)ccc2OCCN)c(Cl)c1Cl`, the IC50 [1] was 18 µM.
Work on `Cc1[nH]c(C(=O)Nc2ccc(C(=O)NC3CCCNC3)cc2OC(C)C)c(Cl)c1Cl.Cl` (centres undefined) yielded an IC50 [1] of 1.3 µM, a solubility thermodynamic at 24 h [2] of 4.6 µM and a half-life at 100 µM [3] of over 5 h.
`Cc1[nH]c(C(=O)Nc2ccc(C(N)=O)cc2NC(C)C)c(Cl)c1Cl` gave an IC50 [1] of 13 µM.
With `Cc1[nH]c(C(=O)Nc2ccccc2OCc2cccc(C(=O)NC3CCNC3)c2)c(Cl)c1Cl.Cl` (centres undefined) the IC50 [1] was 6.3 µM, the solubility thermodynamic at 24 h [2] was 15 µM and the IC50 [4] was 0.57 µM.
For `Cc1[nH]c(C(=O)Nc2ccc(C(N)=O)cc2OCC(=O)N2CCCC(N)C2)c(Cl)c1Cl` (centres undefined), the IC50 [1] was 8.3 µM.
`Cc1[nH]c(C(=O)Nc2ccccc2OC2CCNCC2)c(Cl)c1Cl.Cl` showed a half-life at 100 µM [3] of over 5 h.
Compound `Cc1[nH]c(C(=O)Nc2ccc(C(N)=O)cc2N2CCOCC2)c(Cl)c1Cl` has an IC50 [1] of over 100 µM.
For `Cc1[nH]c(C(=O)Nc2ccc(C(N)=O)cc2OCc2cccc(C(=O)NCCC(=O)O)c2)c(Cl)c1Cl`, the IC50 [1] was 3.4 µM.
Compound `Cc1[nH]c(C(=O)Nc2ccc(O)cc2C(=O)NCc2ccc(C(=O)O)cc2)c(Cl)c1Cl` has an IC50 [1] of 24 µM.
With `COc1ccc(NC(=O)c2cc(Br)c(Br)[nH]2)c(C(=O)NCc2ccc(C(=O)O)cc2)c1` the IC50 [1] was 39 µM and the half-life at 100 µM [3] was 4.83 h.
`COc1cc(NS(C)(=O)=O)ccc1Nc1c2ccccc2nc2ccccc12` [AMSACRINE] showed an IC50 [5] of 74 µM.
`NCCNC(=O)c1cccc(COc2ccccc2NC(=O)c2cc([N+](=O)[O-])c[nH]2)c1` gave an IC50 [1] of over 100 µM.
Compound `CCNC(=O)Nc1ccc(OC2CCNCC2)c(NC(=O)c2[nH]c(C)c(Cl)c2Cl)c1` has an IC50 [1] of 38 µM, an IC50 [6] of 33 µM and an IC50 [7] of 38 µM.
`Cc1[nH]c(C(=O)Nc2ccc(C(N)=O)cc2OC2CCNCC2)c(Cl)c1Cl.Cl` gave a half-life at 100 µM [3] of over 5 h.
With `Cc1[nH]c(C(=O)Nc2ccc(C(N)=O)cc2OCc2cccc(C(=O)NCC(=O)O)c2)c(Cl)c1Cl` the IC50 [1] was 3.5 µM.
Compound `COc1ccc(NC(=O)c2[nH]c(C)c(Br)c2Br)c(C(=O)NCCc2ccc(C(=O)O)cc2)c1` has an IC50 [1] of 25 µM.
Work on `Cc1[nH]c(C(=O)Nc2cc(C(=O)O)ccc2OC2CCNCC2)c(Cl)c1Cl` yielded an IC50 [1] of over 100 µM.
In the case of `Cc1[nH]c(C(=O)Nc2ccc(C(=O)N[C@@H](Cc3ccccc3)C(=O)O)cc2OC(C)C)c(Cl)c1Cl`, the IC50 [1] is reported as 5 µM, the IC50 [6] is reported as over 50 µM and the IC50 [7] is reported as over 50 µM.
Work on `C[C@]12CC[C@H]3[C@@H](CCC4=CC(=O)CC[C@@]43C)[C@@H]1CC[C@@H]2O` [TESTOSTERONE] yielded a half-life at 100 µM [3] of 0.142 h.
`Cc1[nH]c(C(=O)Nc2cc(C(N)=O)ccc2OC(C)C)c(Cl)c1Cl` showed an IC50 [1] of over 100 µM.
Compound `O=C(O)c1ccc(CCNC(=O)c2cc(O)ccc2NC(=O)c2cc(Br)c(Br)[nH]2)cc1` has an IC50 [1] of 22 µM.
With `Cc1[nH]c(C(=O)Nc2cc(C(=O)O)ccc2OC2CCN(C(=O)OC(C)(C)C)CC2)c(Cl)c1Cl` the IC50 [1] was 38 µM.
In the case of `Cc1[nH]c(C(=O)Nc2ccc(C(=O)NCC3CCNCC3)cc2OC(C)C)c(Cl)c1Cl.Cl`, the IC50 [1] is reported as 2.9 µM and the solubility thermodynamic at 24 h [2] is reported as 15 µM.
Work on `CCc1[nH]c(C(=O)Nc2ccc(C(N)=O)cc2OC(C)C)nc1Cl` yielded an IC50 [1] of 6.6 µM and a half-life at 100 µM [3] of over 5 h.
Compound `Cc1[nH]c(C(=O)Nc2ccc(C(N)=O)cc2OCC(=O)N2CCCC(NC(=O)OC(C)(C)C)C2)c(Cl)c1Cl` (centres undefined) has an IC50 [1] of over 100 µM.
For `CCc1nc2nc(Nc3ccc4nc(OCCN5CCOCC5)ccc4c3)nc(NC(C)(C)C)c2[nH]1`, the IC50 [1] was 0.73 µM, the IC50 [6] was 7.7 µM and the IC50 [7] was 11 µM.
With `NS(=O)(=O)c1ccc(CNC(=O)c2cc(O)ccc2NC(=O)c2cc(Br)c(Br)[nH]2)cc1` the IC50 [1] was over 100 µM.
`Cc1[nH]c(C(=O)Nc2ccccc2OCc2cccc(C(=O)NCCN)c2)c(Cl)c1Cl.Cl` gave an IC50 [1] of 3 µM, an IC50 [8] of 2.3 µM and an IC50 at 72 h [9] of 27 µM. For the same compound, the selectivity ratio [10] was 3, the selectivity ratio [11] was 1.8 and the solubility thermodynamic at 24 h [2] was 18 µM. For the same compound, the half-life at 100 µM [3] was over 5 h, the IC50 [6] was 9 µM and the IC50 [7] was 15 µM.
For `Cc1[nH]c(C(=O)Nc2ccc(C(=O)NC3CCNCC3)cc2OC(C)C)c(Cl)c1Cl`, the IC50 [1] was 4.5 µM.
`Cc1[nH]c(C(=O)Nc2ccc(C(=O)NCC(=O)O)cc2OC(C)C)c(Cl)c1Cl` gave an IC50 [1] of 7.2 µM, an IC50 [6] of over 50 µM and an IC50 [7] of over 50 µM.
Compound `Cc1[nH]c(C(=O)Nc2ccccc2OCc2cccc(C(=O)N3CCCC(N)C3)c2)c(Cl)c1Cl` (centres undefined) has an IC50 [1] of 27 µM, an IC50 at 72 h [9] of 1.7 µM and a selectivity ratio [10] of 1.3. For the same compound, the selectivity ratio [11] was 0.9, the IC50 [4] was 0.77 µM and the IC50 [6] was 1.3 µM. The IC50 [7] was 1.9 µM.
In the case of `COc1ccc(NC(=O)c2[nH]c(C)c(Cl)c2Cl)c(C(=O)NCc2ccc(C(=O)O)cc2)c1`, the IC50 [1] is reported as 67 µM and the half-life at 100 µM [3] is reported as over 5 h.
`Cc1[nH]c(C(=O)Nc2ccc(C(N)=O)cc2NCCN)c(Cl)c1Cl.Cl` showed an IC50 [1] of over 100 µM and a half-life at 100 µM [3] of over 5 h.
Compound `Cc1[nH]c(C(=O)Nc2ccc(C(=O)N3CCCC(N)C3)cc2OC(C)C)c(Cl)c1Cl` (centres undefined) has an IC50 [1] of 32 µM.
Compound `NCCNC(=O)c1cccc(COc2ccccc2NC(=O)c2cc(Br)c(Br)[nH]2)c1` has an IC50 [1] of 45 µM.
Work on `Cc1[nH]c(C(=O)Nc2ccc(C(N)=O)cc2OCc2cccc(C(=O)NCCN)c2)c(Cl)c1Cl.Cl` yielded an IC50 [1] of 1 µM and a half-life at 100 µM [3] of over 5 h.
With `Cc1ccc(C(=O)Nc2ccccc2OCc2cccc(C(=O)NCCN)c2)[nH]1` the IC50 [1] was over 100 µM.
`Cc1[nH]c(C(=O)Nc2ccccc2OCc2cccc(C(N)=O)c2)c(Cl)c1Cl` showed an IC50 [1] of over 100 µM.
With `NCCNC(=O)c1cccc(COc2ccccc2NC(=O)c2cc(Cl)c(Cl)[nH]2)c1` the IC50 [1] was 76 µM.
Compound `CCc1[nH]c(C(=O)Nc2ccccc2OCc2cccc(C(=O)NCCN)c2)nc1Cl` has an IC50 [1] of 37 µM.
`Cc1[nH]c(C(=O)Nc2ccccc2OC2CCN(C(=O)OC(C)(C)C)CC2)c(Cl)c1Cl` gave an IC50 [1] of over 100 µM.
Compound `Cc1[nH]c(C(=O)Nc2ccc(C(=O)N3CCNCC3)cc2OC(C)C)c(Cl)c1Cl` has an IC50 [1] of over 100 µM.
Compound `COC(=O)[C@@H](C)NC(=O)c1ccc(NC(=O)c2[nH]c(C)c(Cl)c2Cl)c(OC2CCNCC2)c1` has an IC50 [1] of 45 µM, an IC50 [6] of 8.7 µM and an IC50 [7] of 9.8 µM.
Work on `Cc1[nH]c(C(=O)Nc2ccccc2OCc2cccc(C(=O)O)c2)c(Cl)c1Cl` yielded an IC50 [1] of 29 µM and a solubility thermodynamic at 24 h [2] of 2.1 µM (≈ 0.88 µg/mL).
For `Cc1[nH]c(C(=O)Nc2ccc(C(N)=O)cc2N2CCOC(C)C2)c(Cl)c1Cl` (centres undefined), the IC50 [1] was over 100 µM.
For `Cc1[nH]c(C(=O)Nc2ccccc2OCc2cccc(C(=O)NC3CCCNC3)c2)c(Cl)c1Cl.Cl` (centres undefined), the IC50 [1] was 7.7 µM, the IC50 at 72 h [9] was 2.1 µM and the selectivity ratio [10] was 14. The selectivity ratio [11] was 16, the solubility thermodynamic at 24 h [2] was 10 µM and the half-life at 100 µM [3] was over 5 h. The IC50 [4] was 0.19 µM, the IC50 [6] was 0.15 µM and the IC50 [7] was 0.13 µM.
